Results taken from patent US20200131669A1, “CYCLIC PEPTIDE COMPOUND HAVING HIGH MEMBRANE PERMEABILITY, AND LIBRARY CONTAINING SAME” (Chugai Seiyaku Kabushiki Kaisha, priority 2017, published 2020).
Starred links: 1 amine or outer side, 2 acyl side, 3 side chain; linkers in the order of their positions; H or OH if unused. Positions of bridges follow the written chain, without caps; N, C: chain ends. Non-standard residues stand in square brackets, D forms with d. Residues, ends and D or L forms follow the SMILES beside them. *: point of attachment. NMePhe(3-Cl) = CN[C@@H](Cc1cccc(Cl)c1)C(=O)O; Gly(NCH2CH2Ph) = O=C(O)CNCCc1ccccc1; X9 = O=C(CN(CCOc1ccccc1)[*:1])[*:2]; Gly(N-(CH2)2OEt) = CCOCCNCC(=O)O; NMeF = CN[C@@H](Cc1ccccc1)C(=O)O; NMeI = CC[C@H](C)[C@H](NC)C(=O)O; NMeL = CN[C@@H](CC(C)C)C(=O)O; Propyl(2R-OH) = C[C@@H](O)C*; NMeV = CN[C@H](C(=O)O)C(C)C; NMeAbu = CC[C@H](NC)C(=O)O; NMeA = CN[C@@H](C)C(=O)O; Piperidide = C1CCN(*)CC1; Abu = CC[C@H](N)C(=O)O; CH2CMe2OH = CC(C)(O)C*; NBuGly = CCCCNCC(=O)O; Isopentyl = CC(C)CC*; NPrGly = CCCNCC(=O)O; Sar = CNCC(=O)O; tBu = CC(C)(C)*

assay: Caco-2 membrane permeability, improved method as used in the following Examples (96-well, 20 to 24 h preincubation); assay type: in vitro ADME; conditions: human, Caco-2, Caco-2
Outline: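 Caco-2 monolayers were grown three weeks and preincubated 20–24 h at 37 °C with compound in DMEM+FaSSIF (1% DMSO) apically. The assay then used compound in FaSSIF/HBSS (1% DMSO, pH 6.0) apically and HBSS with 4% BSA (pH 7.4) basally. Basal samples were taken at 180 min for LC/MS, and Papp (cm/sec) was calculated.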

Structure (SMILES) | Papp A→B at 180 min
CC[C@@H]1NC(=O)[C@H](Cc2ccccc2)N(C)C(=O)[C@H](CC(C)C)N(C)C(=O)[C@H](CC(C)C)NC(=O)[C@H](CC)N(C)C(=O)C[C@@H](C(=O)N2CCCCC2)NC(=O)[C@H](CC(C)C)N(C)C(=O)CN(C)C(=O)[C@H]([C@@H](C)O)NC(=O)CN(CCc2ccccc2)C(=O)[C@H](CC(C)C)N(C)C1=O [pd415] ([NMeAbu]L[NMeL][NMeF][Abu][NMeL][Gly(NCH2CH2Ph)]T[Sar][NMeL]D-Piperidide; lactam N-11) | 3.3 ×10⁻⁶ cm/s
CCOCCN1CC(=O)N(C)[C@@H](CC(C)C)C(=O)N[C@@H](COC(C)(C)C)C(=O)N(C)[C@@H](Cc2ccccc2)C(=O)N(C)[C@@H](CC)C(=O)N[C@H](C(=O)N2CCCCC2)CC(=O)N[C@H](CC(C)C)C(=O)N(C)[C@@H](Cc2ccccc2)C(=O)N[C@@H](CC(C)C)C(=O)N(C)[C@@H](CC)C(=O)N[C@@H]([C@@H](C)O)C1=O [pd416] ([dL][NMeF]L[NMeAbu]T[Gly(N-(CH2)2OEt)][NMeL]S(tBu)[NMeF][NMeAbu]D-Piperidide; lactam N-11) | 3.1 ×10⁻⁶ cm/s
CCOCCN1CC(=O)N(C)[C@@H](CC(C)C)C(=O)N[C@H](C(=O)N2CCCCC2)CC(=O)N(C)[C@@H](C(C)C)C(=O)N[C@@H](CC(C)C)C(=O)N(C)[C@@H](CC)C(=O)N(C)[C@@H](Cc2ccccc2)C(=O)N[C@@H](CC(C)C)C(=O)N(C)[C@@H](Cc2ccccc2)C(=O)N(C)[C@@H](CC)C(=O)N[C@@H]([C@@H](C)O)C1=O [pd417] ([NMeV]L[NMeAbu][NMeF]L[NMeF][NMeAbu]T[Gly(N-(CH2)2OEt)][NMeL]D-Piperidide; lactam N-11) | 1 ×10⁻⁶ cm/s
CCOCCN1CC(=O)N(C)[C@@H](Cc2ccccc2)C(=O)N(C)[C@@H](CC(C)C)C(=O)N[C@@H](COC(C)(C)C)C(=O)N(C)[C@@H](CC(C)C)C(=O)N[C@H](C(=O)N2CCCCC2)CC(=O)N(C)CC(=O)N(C)[C@@H](Cc2ccccc2)C(=O)N[C@@H](C(C)C)C(=O)N(C)[C@@H](CC(C)C)C(=O)N[C@@H]([C@@H](C)O)C1=O [pd418] ([Sar][NMeF]V[NMeL]T[Gly(N-(CH2)2OEt)][NMeF][NMeL]S(tBu)[NMeL]D-Piperidide; lactam N-11) | 1.5 ×10⁻⁶ cm/s
CCCCN1CC(=O)N(C)[C@@H](CC(C)C)C(=O)N[C@H](C(=O)N2CCCCC2)CC(=O)N(C)[C@@H](CC)C(=O)N[C@@H](CC(C)C)C(=O)N(C)[C@@H](CC(C)C)C(=O)N(C)[C@@H](Cc2ccccc2)C(=O)N[C@@H](CC)C(=O)N(C)[C@@H](Cc2ccccc2)C(=O)N(CCOCC)CC(=O)N[C@@H]([C@@H](C)O)C1=O [pd419] ([NMeAbu]L[NMeL][NMeF][Abu][NMeF][Gly(N-(CH2)2OEt)]T[NBuGly][NMeL]D-Piperidide; lactam N-11) | 2.3 ×10⁻⁶ cm/s
CC[C@H]1C(=O)N(C)[C@@H](Cc2ccccc2)C(=O)N[C@@H](C)C(=O)N(C)[C@@H](CC(C)C)C(=O)N(C)[C@@H](CC)C(=O)N[C@@H]([C@@H](C)O)C(=O)N(CCOc2ccccc2)CC(=O)N(C)[C@@H](CC(C)C)C(=O)N[C@H](C(=O)N2CCCCC2)CC(=O)N(C)[C@@H](C(C)C)C(=O)N[C@@H](CC(C)C)C(=O)N1C [pd420] ([NMeV]L[NMeAbu][NMeF]A[NMeL][NMeAbu]T[X9][NMeL]D-Piperidide; lactam N-11) | 4.5 ×10⁻⁶ cm/s
CC[C@H]1C(=O)N[C@@H]([C@@H](C)O)C(=O)N(C)CC(=O)N(C)[C@@H](Cc2ccccc2)C(=O)N(C)[C@@H](CC)C(=O)N[C@@H](COC(C)(C)C)C(=O)N(C)[C@@H](CC(C)C)C(=O)N[C@H](C(=O)N2CCCCC2)CC(=O)N(CCOc2ccccc2)CC(=O)N(C)[C@@H](CC(C)C)C(=O)N[C@@H](CC(C)C)C(=O)N1C [pd421] ([X9][NMeL]L[NMeAbu]T[Sar][NMeF][NMeAbu]S(tBu)[NMeL]D-Piperidide; lactam N-11) | 1.3 ×10⁻⁶ cm/s
CCCCN1CC(=O)N(C)[C@@H](C)C(=O)N[C@@H](COC(C)(C)C)C(=O)N(C)[C@@H](CC(C)C)C(=O)N(CCOc2ccccc2)CC(=O)N[C@H](C(=O)N2CCCCC2)CC(=O)N[C@H](CC(C)C)C(=O)N(C)[C@@H](Cc2ccccc2)C(=O)N[C@@H](CC(C)C)C(=O)N(C)[C@@H](CC)C(=O)N[C@@H]([C@@H](C)O)C1=O [pd422] ([dL][NMeF]L[NMeAbu]T[NBuGly][NMeA]S(tBu)[NMeL][X9]D-Piperidide; lactam N-11) | 1 ×10⁻⁶ cm/s
CC[C@H](C)[C@@H]1NC(=O)[C@H](CC(C)C)N(C)C(=O)[C@@H](C)NC(=O)C[C@@H](C(=O)N2CCCCC2)NC(=O)[C@H](CC)N(C)C(=O)[C@H](Cc2ccccc2)N(C)C(=O)[C@H](COC(C)(C)C)NC(=O)[C@H](CC(C)C)N(C)C(=O)[C@H](CC)N(C)C(=O)[C@H]([C@@H](C)O)NC(=O)CN(CCOc2ccccc2)C1=O [pd423] ([dA][NMeL]I[X9]T[NMeAbu][NMeL]S(tBu)[NMeF][NMeAbu]D-Piperidide; lactam N-11) | 1 ×10⁻⁶ cm/s
CC[C@@H]1NC(=O)[C@H](Cc2ccccc2)N(C)C(=O)[C@H](CC(C)C)N(C)C(=O)[C@H](CC(C)C)NC(=O)[C@H](CC)N(C)C(=O)C[C@@H](C(=O)N2CCCCC2)NC(=O)[C@H](CC(C)C)N(C)C(=O)CN(C)C(=O)[C@H]([C@@H](C)O)NC(=O)CN(CCOc2ccccc2)C(=O)[C@H](CC(C)C)N(C)C1=O [pd424] ([NMeAbu]L[NMeL][NMeF][Abu][NMeL][X9]T[Sar][NMeL]D-Piperidide; lactam N-11) | 1.2 ×10⁻⁶ cm/s
CCCN1CC(=O)N(C)[C@@H](CC(C)C)C(=O)N[C@H](C(=O)N2CCCCC2)CC(=O)N(C)[C@@H](C)C(=O)N[C@@H](COC[C@@H](C)O)C(=O)N(C)[C@@H](CC(C)C)C(=O)N(C)[C@@H](Cc2cccc(Cl)c2)C(=O)N[C@@H](CC(C)C)C(=O)N(C)[C@@H](Cc2ccccc2)C(=O)N(C)[C@@H]([C@@H](C)CC)C(=O)N[C@@H]([C@@H](C)O)C1=O [pd425] ([NMeA]S(Propyl(2R-OH))[NMeL][NMePhe(3-Cl)]L[NMeF][NMeI]T[NPrGly][NMeL]D-Piperidide; lactam N-11) | 1.2 ×10⁻⁶ cm/s
CCCN1CC(=O)N(C)[C@@H](CC(C)C)C(=O)N[C@@H](COCCC(C)C)C(=O)N(C)[C@@H](Cc2ccccc2)C(=O)N(C)[C@@H](C(C)C)C(=O)N[C@H](C(=O)N2CCCCC2)CC(=O)N[C@H](C(C)C)C(=O)N(C)[C@@H](Cc2ccccc2)C(=O)N[C@@H](COCC(C)(C)O)C(=O)N(C)[C@@H](CC(C)C)C(=O)N[C@@H]([C@@H](C)O)C1=O [pd426] ([dV][NMeF]S(CH2CMe2OH)[NMeL]T[NPrGly][NMeL]S(Isopentyl)[NMeF][NMeV]D-Piperidide; lactam N-11) | 1.4 ×10⁻⁶ cm/s
CC(C)C[C@@H]1NC(=O)[C@H](Cc2ccccc2)N(C)C(=O)[C@@H](C(C)C)NC(=O)C[C@@H](C(=O)N2CCCCC2)NC(=O)[C@H](CC(C)C)N(C)C(=O)[C@H](Cc2cccc(Cl)c2)N(C)C(=O)[C@H](COCC(C)(C)O)NC(=O)[C@H](CC(C)C)N(C)C(=O)CN(C)C(=O)[C@H]([C@@H](C)O)NC(=O)[C@H](CC(C)C)N(C)C1=O [pd427] ([dV][NMeF]L[NMeL]T[Sar][NMeL]S(CH2CMe2OH)[NMePhe(3-Cl)][NMeL]D-Piperidide; lactam N-11) | 1.3 ×10⁻⁶ cm/s
CCCN1CC(=O)N(C)[C@@H](CC(C)C)C(=O)N[C@H](C(=O)N2CCCCC2)CC(=O)N(C)[C@@H](C)C(=O)N[C@@H](COCC(C)(C)O)C(=O)N(C)[C@@H](CC(C)C)C(=O)N(C)[C@@H](Cc2ccccc2)C(=O)N[C@@H](CC(C)C)C(=O)N(C)[C@@H](Cc2ccccc2)C(=O)N(C)[C@@H]([C@@H](C)CC)C(=O)N[C@@H]([C@@H](C)O)C1=O [pd428] ([NMeA]S(CH2CMe2OH)[NMeL][NMeF]L[NMeF][NMeI]T[NPrGly][NMeL]D-Piperidide; lactam N-11) | 2.8 ×10⁻⁶ cm/s
CCCN1CC(=O)N(C)[C@@H](CC(C)C)C(=O)N[C@H](C(=O)N2CCCCC2)CC(=O)N(C)[C@@H](C)C(=O)N[C@@H](CC(C)C)C(=O)N(C)[C@@H](CC(C)C)C(=O)N(C)[C@@H](Cc2ccccc2)C(=O)N[C@@H](COCC(C)(C)O)C(=O)N(C)[C@@H](Cc2ccccc2)C(=O)N(C)[C@@H]([C@@H](C)CC)C(=O)N[C@@H]([C@@H](C)O)C1=O [pd429] ([NMeA]L[NMeL][NMeF]S(CH2CMe2OH)[NMeF][NMeI]T[NPrGly][NMeL]D-Piperidide; lactam N-11) | 3.3 ×10⁻⁶ cm/s
CCCN1CC(=O)N(C)[C@@H](Cc2cccc(Cl)c2)C(=O)N(C)[C@@H](CC(C)C)C(=O)N[C@@H](COC(C)(C)C)C(=O)N(C)[C@@H](CC(C)C)C(=O)N[C@H](C(=O)N2CCCCC2)CC(=O)N(C)CC(=O)N(C)[C@@H](Cc2ccccc2)C(=O)N[C@@H](COCC(C)(C)O)C(=O)N(C)[C@@H](CC(C)C)C(=O)N[C@@H]([C@@H](C)O)C1=O [pd430] ([Sar][NMeF]S(CH2CMe2OH)[NMeL]T[NPrGly][NMePhe(3-Cl)][NMeL]S(tBu)[NMeL]D-Piperidide; lactam N-11) | 1.3 ×10⁻⁶ cm/s
CCCN1CC(=O)N(C)[C@@H](CC(C)C)C(=O)N[C@@H](COCC(C)(C)O)C(=O)N(C)[C@@H](Cc2ccccc2)C(=O)N(C)[C@@H](CC(C)C)C(=O)N[C@H](C(=O)N2CCCCC2)CC(=O)N[C@H](C(C)C)C(=O)N(C)[C@@H](Cc2ccccc2)C(=O)N[C@@H](CC(C)C)C(=O)N(C)[C@@H](CC(C)C)C(=O)N[C@@H]([C@@H](C)O)C1=O [pd432] ([dV][NMeF]L[NMeL]T[NPrGly][NMeL]S(CH2CMe2OH)[NMeF][NMeL]D-Piperidide; lactam N-11) | 1.5 ×10⁻⁶ cm/s
